The nature of data set [1]: Cytotoxicity against human DU145 cells assessed as cell growth at 100 uM after 72 hrs in presence of serum amine oxidase inhibitor aminoguanidine (RVb = 49 +/- 2 pmol/10^6 cells). Type of data set: cell-based, DU-145. Particulars: read-out: Activity.
Data set [2] deals with DU-145. Kind of data set: Effect on intracellular level of decarboxylated S-adenosyl-L-methionine in human DU145 cells assessed per million cells at 100 uM after 72 hrs in presence of serum amine oxidase inhibitor aminoguanidine and ODC inhibitor DFMO (RVb = 263 +/- 14 pmol/10^6 cells). Type of data set: functional.
The subject of data set [3] is DU-145. Kind of data set: Effect on intracellular level of S-adenosyl-Lmethionine in human DU145 cells assessed per million cells at 100 uM after 72 hrs in presence of serum amine oxidase inhibitor aminoguanidine and ODC inhibitor DFMO (RVb = 80 +/- 5 pmol/10^6 cells). Type of data set: functional.
Data set [4] deals with DU-145. Kind of data set: Metabolic stability of the compound in human DU145 cells assessed as compound metabolite-mediated cell toxicity at 100 uM after 48 hrs by MTT assay in presence of bovine serum amine oxidase. Type of data set: ADME, cell-based. Particulars: du-145, 48 h. On the technique in general: Tetrazolium assays rely on reduction of a dye to a coloured formazan, in cell work by metabolically active cells.

Data set [5] relates to DU-145. The experiment in a line: Metabolic stability of the compound in human DU145 cells assessed as metabolites-mediated cell toxicity at 10 uM after 48 hrs by MTT assay in presence of bovine serum amine oxidase. Type of data set: ADME, cell-based. Particulars: du-145, 48 h.
Data set [6] addresses T1, Peroxisomal N(1)-acetyl-spermine/spermidine oxidase (Homo sapiens, UniProt Q6QHF9). The experiment in a line: Metabolic stability of the compound assessed as human recombinant APAO-mediated compound degradation at 0.5 to 1 mM after 5 to 60 mins in presence of benzaldehyde. Type of data set: ADME. Particulars: 1000 µM.
In data set [7] the test system is DU-145. Kind of data set: Metabolic stability in N1,N11-diethyl-norspermine pretreated human DU145 cells expressing SSAT assessed as accumulation of acetylated derivatives of compound in medium at 100 uM after 48 hrs. Type of data set: ADME, cell-based. Particulars: du-145, 48 h.
Data set [8] concerns DU-145. Kind of data set: Metabolic stability in human DU145 cells assessed as intracellular compound/methylspermine level per ug DNA at 100 uM after 72 hrs in presence of serum amine oxidases inhibitor aminoguanidine. Type of data set: ADME, cell-based. Particulars: du-145, 72 h.
The test system of data set [9] is DU-145. The experiment in a line: Metabolic stability in human DU145 cells assessed as intracellular compound/methylspermine level per ug DNA at 100 uM after 48 hrs in presence of serum amine oxidases inhibitor aminoguanidine. Particulars: du-145, 48 h. Type of data set: ADME, cell-based.
For data set [10], the system named is DU-145. The experiment in a line: Metabolic stability in human DU145 cells assessed as intracellular compound/methylspermine level per ug DNA at 100 uM after 24 hrs in presence of serum amine oxidases inhibitor aminoguanidine. Format: ADME, cell-based. Particulars: du-145, 24 h.
Data set [11] deals with DU-145. Kind of data set: Metabolic stability in human DU145 cells assessed as intracellular methylspermine level per ug DNA at 100 uM after 72 hrs in presence of serum amine oxidases inhibitor aminoguanidine. Particulars: du-145, 72 h. Type of data set: ADME, cell-based.
In data set [12] the test system is DU-145. Kind of data set: Metabolic stability in human DU145 cells assessed as intracellular methylspermine level per ug DNA at 100 uM after 48 hrs in presence of serum amine oxidases inhibitor aminoguanidine. Type of data set: ADME, cell-based. Particulars: du-145, 48 h.
Data set [13] relates to DU-145. The experiment in a line: Metabolic stability in human DU145 cells assessed as intracellular compound level per ug DNA at 100 uM after 72 hrs in presence of serum amine oxidases inhibitor aminoguanidine. Type of data set: ADME, cell-based. Particulars: du-145, 72 h.
In data set [14] the test system is DU-145. The experiment in a line: Metabolic stability in human DU145 cells assessed as intracellular compound level per ug DNA at 100 uM after 48 hrs in presence of serum amine oxidases inhibitor aminoguanidine. Type of data set: ADME, cell-based. Particulars: du-145, 48 h.
Data set [15] concerns DU-145. The experiment in a line: Metabolic stability in human DU145 cells assessed as intracellular compound level per ug DNA at 100 uM after 24 hrs in presence of serum amine oxidases inhibitor aminoguanidine. Type of data set: ADME, cell-based. Particulars: du-145, 24 h.
Data set [16] relates to DU-145. The experiment in a line: Metabolic stability in human DU145 cells assessed as intracellular Ac-8-Methylspermidine level per ug DNA at 100 uM after 72 hrs in presence of serum amine oxidases inhibitor aminoguanidine. Type of data set: ADME, cell-based. Particulars: du-145, 72 h.
The subject of data set [17] is DU-145. Kind of data set: Metabolic stability in human DU145 cells assessed as intracellular Ac-8-Methylspermidine level per ug DNA at 100 uM after 48 hrs in presence of serum amine oxidases inhibitor aminoguanidine. Format: ADME, cell-based. Particulars: du-145, 48 h.
The test system of data set [18] is DU-145. The experiment in a line: Metabolic stability in human DU145 cells assessed as intracellular Ac-8-Methylspermidine level per ug DNA at 100 uM after 24 hrs in presence of serum amine oxidases inhibitor aminoguanidine. Type of data set: ADME, cell-based. Particulars: du-145, 24 h.
Data set [19] concerns DU-145. The experiment in a line: Metabolic stability in human DU145 cells assessed as intracellular spermine level per ug DNA at 100 uM after 72 hrs in presence of serum amine oxidases inhibitor aminoguanidine (reference value: 154 +/- 7 pmol/ug DNA). Format: ADME, cell-based. Particulars: du-145, 72 h.
In data set [20] the test system is DU-145. The experiment in a line: Metabolic stability in human DU145 cells assessed as intracellular spermine level per ug DNA at 100 uM after 48 hrs in presence of serum amine oxidases inhibitor aminoguanidine (reference value: 133 +/- 4 pmol/ug DNA). Type of data set: ADME, cell-based. Particulars: du-145, 48 h.
In data set [21] the test system is DU-145. Kind of data set: Metabolic stability in human DU145 cells assessed as intracellular spermine level per ug DNA at 100 uM after 24 hrs in presence of serum amine oxidases inhibitor aminoguanidine (reference value: 122 +/- 11 pmol/ug DNA). Format: ADME, cell-based. Particulars: du-145, 24 h.
Data set [22] concerns DU-145. Kind of data set: Metabolic stability in human DU145 cells assessed as intracellular spermidine level per ug DNA at 100 uM after 72 hrs in presence of serum amine oxidases inhibitor aminoguanidine (reference value: 137 +/- 3 pmol/ug DNA). Particulars: du-145, 72 h. Type of data set: ADME, cell-based.
Data set [23] concerns DU-145. The experiment in a line: Metabolic stability in human DU145 cells assessed as intracellular spermidine level per ug DNA at 100 uM after 48 hrs in presence of serum amine oxidases inhibitor aminoguanidine (reference value: 137 +/- 5 pmol/ug DNA). Type of data set: ADME, cell-based. Particulars: du-145, 48 h.
For data set [24], the system named is DU-145. Kind of data set: Metabolic stability in human DU145 cells assessed as intracellular spermidine level per ug DNA at 100 uM after 24 hrs in presence of serum amine oxidases inhibitor aminoguanidine (reference value: 154 +/- 7 pmol/ug DNA). Format: ADME, cell-based. Particulars: du-145, 24 h.
Data set [25] deals with DU-145. Kind of data set: Metabolic stability in human DU145 cells expressing SSAT assessed as accumulation of acetylated derivatives of compound in medium at 100 uM after 48 hrs. Format: ADME, cell-based. Particulars: du-145, 48 h.
For data set [26], the system named is DU-145. The experiment in a line: Metabolic stability in N1,N11-diethyl-norspermine pretreated human DU145 cells expressing SSAT assessed as intracellular accumulation of acetylated derivatives of compound at 100 uM after 48 hrs. Particulars: du-145, 48 h. Format: ADME, cell-based.
The subject of data set [27] is DU-145. Kind of data set: Metabolic stability in human DU145 cells assessed as intracellular methylspermine level per ug DNA at 100 uM after 24 hrs in presence of serum amine oxidases inhibitor aminoguanidine. Format: ADME, cell-based. Particulars: du-145, 24 h.
The subject of data set [28] is DU-145. The experiment in a line: Metabolic stability in human DU145 cells assessed as intracellular putrescine level per ug DNA at 100 uM after 72 hrs in presence of serum amine oxidases inhibitor aminoguanidine (reference value: 6 pmol/ug DNA). Type of data set: ADME, cell-based. Particulars: du-145, 72 h.
In data set [29] the test system is DU-145. The experiment in a line: Metabolic stability in human DU145 cells assessed as intracellular putrescine level per ug DNA at 100 uM after 48 hrs in presence of serum amine oxidases inhibitor aminoguanidine (reference value: 7 +/- 1 pmol/ug DNA). Type of data set: ADME, cell-based. Particulars: du-145, 48 h.
The test system of data set [30] is DU-145. The experiment in a line: Metabolic stability in human DU145 cells assessed as intracellular putrescine level per ug DNA at 100 uM after 24 hrs in presence of serum amine oxidases inhibitor aminoguanidine (reference value: 11 +/- 2 pmol/ug DNA). Format: ADME, cell-based. Particulars: du-145, 24 h.
The target of data set [31] is T1, Peroxisomal N(1)-acetyl-spermine/spermidine oxidase. Kind of data set: Metabolic stability of the compound assessed as human recombinant APAO-mediated compound degradation at 0.5 to 1 mM after 5 to 60 mins. Format: ADME. Particulars: 1000 µM.

T1 sequence (Q6QHF9 whole entry): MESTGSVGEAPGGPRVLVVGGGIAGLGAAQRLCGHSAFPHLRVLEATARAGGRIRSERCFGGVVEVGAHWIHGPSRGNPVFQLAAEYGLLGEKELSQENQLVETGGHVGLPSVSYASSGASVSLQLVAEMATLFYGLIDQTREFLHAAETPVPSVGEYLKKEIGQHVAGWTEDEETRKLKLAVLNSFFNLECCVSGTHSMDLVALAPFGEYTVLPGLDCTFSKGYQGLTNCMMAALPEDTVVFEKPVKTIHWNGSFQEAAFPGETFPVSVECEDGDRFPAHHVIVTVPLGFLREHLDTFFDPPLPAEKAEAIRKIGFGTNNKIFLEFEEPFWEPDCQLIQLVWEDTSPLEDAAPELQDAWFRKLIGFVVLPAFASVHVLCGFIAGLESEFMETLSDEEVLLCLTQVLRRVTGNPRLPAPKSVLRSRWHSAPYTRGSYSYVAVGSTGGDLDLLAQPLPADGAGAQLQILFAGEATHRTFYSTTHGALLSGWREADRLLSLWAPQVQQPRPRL

On to `NCCCCNCCCN` [SPERMIDINE], for which the viability at 72 h, 100 µM in data set [1] is 89%. The Activity in [2] was <5 pmol; in data set [3] it was 126 pmol. Also, the Stability result is “Unstable” in [4], “Stable” in data set [5], “Unstable” in data set [6] and “Unstable” in data set [7].

`CC(N)CCCNCCCN` (stereo not given): the Drug metabolism is on record as 375 pmol in data set [8]; 326 pmol in data set [9]; 257 pmol in [10]; 43 pmol in data set [11]; 39 pmol in [12]; 332 pmol in data set [13]. The Drug metabolism is recorded as 287 pmol in data set [14]; 257 pmol in data set [15]; 4 pmol in data set [16]; 7 pmol in data set [17]; 15 pmol in data set [18]; 70 pmol in data set [19]. The Drug metabolism in data set [20] is 57 pmol; in data set [21] it was 83 pmol; in [22] it was 20 pmol; in [23], 18 pmol/ug DNA; in data set [24] it was 30 pmol/ug DNA. Also, the viability at 72 h, 100 µM in data set [1] amounted to 93%. In addition, the Activity in data set [2] is reported as 60 pmol; in data set [3], 138 pmol. Moreover, the Stability entry in data set [4] is given as “Unstable”; in data set [5], “Stable”; in data set [25], “Unstable”; in [6] it was “Unstable”; in data set [7] it was “Unstable”; in [26], “Unstable”.

Regarding `CC(CN)CNCCCCN.Cl` (stereo not given), the Drug metabolism turned out to be 214 pmol in data set [8]; 202 pmol in [9]; 200 pmol in data set [10]; 80 pmol in data set [11]; 77 pmol in data set [12]; 67 pmol in data set [27]. Also, the Drug metabolism in [13] is 134 pmol; in data set [14], 135 pmol; in [15] it was 133 pmol; in [19] it was 75 pmol; in [20], 72 pmol; in data set [21], 67 pmol. The Drug metabolism was 38 pmol in data set [22]; 38 pmol/ug DNA in data set [23]; 39 pmol/ug DNA in [24]; < 5 pmol in [28]; < 5 pmol in data set [29]; < 5 pmol in data set [30]. The viability at 72 h, 100 µM in data set [1] was 86%. Besides, the Activity in [2] was <5 pmol; in data set [3], 148 pmol. For the same compound, the Stability result in data set [5] was “Stable”; in [31] it was “Unstable”; in data set [6] it was “Unstable”; in [7] it was “Unstable”; in data set [26], “Unstable”.

For `C[C@H](N)CCNCCCCN`, the Drug metabolism in [8] is 371 pmol; in [9], 283 pmol; in data set [10] it was 301 pmol; in data set [11] it was 60 pmol; in data set [12] it was 44 pmol; in [27], 37 pmol. Moreover, the Drug metabolism in data set [13] was found to be 311 pmol; in [14], 239 pmol; in data set [15], 264 pmol; in data set [19] it was 74 pmol; in [20], 55 pmol; in data set [21], 62 pmol. For the same compound, the Drug metabolism turned out to be 16 pmol in data set [22], 11 pmol/ug DNA in data set [23] and 15 pmol/ug DNA in [24]. In addition, in data set [1], the viability at 72 h, 100 µM is 84%. The Activity in data set [2] is 49 pmol; in data set [3], 177 pmol. For the same compound, the Stability result is “Stable” in [5], “Unstable” in [6] and “Unstable” in [7].

Turning to `CC(=O)NCCCNCCCCN`, in [7], the Stability entry is on record as “Unstable”.

As for `CC(CCN)NCCCCN.Cl` (stereo not given), the Drug metabolism in [8] is on record as 176 pmol; in data set [9], 168 pmol; in [10], 181 pmol; in [13], 176 pmol; in data set [14] it was 168 pmol; in data set [15] it was 181 pmol. The Drug metabolism came to 115 pmol in data set [19]; 103 pmol in data set [20]; 92 pmol in data set [21]; 22 pmol in data set [22]; 18 pmol/ug DNA in data set [23]; 23 pmol/ug DNA in data set [24]. Further, the Drug metabolism in data set [30] was < 5 pmol. In addition, the viability at 72 h, 100 µM in data set [1] was found to be 91%. The Activity in data set [2] is recorded as 109 pmol; in data set [3], 149 pmol. For the same compound, the Stability result is listed as “Stable” in [5], “Stable” in data set [6] and “Unstable” in data set [7].

The record behind these values is ChEMBL document CHEMBL2177009, “The use of novel C-methylated spermidine derivatives to investigate the regulation of polyamine metabolism” (J Med Chem, 2011).
